According to US20160158317A1, “Antimicrobial Peptide Variants and Polynucleotides Encoding Same” (Adenium Biotech A/S, priority 2010, published 2016):
“And” between values parts separate entries of the source, which are not always exact repeats. Equal values may be shown once. Marks after values point to notes of the source that are not given here.

Tested on: Escherichia coli AID#172
Experiment: Peritonitis/sepsis model in neutropenic NMRI mice, effect over time of 7.5 mg/kg (Example 3)
Assay type: in vivo
Parameters: key to Score T = 0 hour / Score T = 5 hours / Score T = 2 hours: Score 0: Healthy.; Score 1: Minor clinical signs of infection and inflammation e.g. observations of minor signs of distress or changed activity.; Score 2: Clear signs of infection like, social withdrawal, lack of curiosity, changed body position, piloerection, or changes in pattern of movement.; Score 3: Severe signs of infection like stiff movements, lack of curiosity, changed body position, piloerection, pain, or changes in pattern of movement.; Score 4: Severe pain and the mouse was sacrificed immediately to minimize the suffering of the animal.; Score 5: The mouse was dead
Details: for CFU levels compared to vehicle: peritoneal fluid at 2 and 5 hours, blood at 5 hours, p<0.01; for difference in CFU levels compared to vehicle treatment, blood / difference in CFU levels compared to vehicle treatment, peritoneum: single i.v. dose (NZ17074 7.5 mg/kg, Meropenem 40 mg/kg); for Score T = 0 hour: score at start of treatment; for log10 CFU Mean Blood / log10 CFU mean PF: group mean; for log10 CFU mean PF / log10 CFU PF: peritoneal fluid
Description: The purpose of this study was to investigate the in vivo efficacy of NZ17074 following intravenous (i.v.) administration of a single dose of 7.5 mg/kg. The effect was tested against Escherichia coli AID#172 in the peritonitis model in neutropenic NMRI mice to avoid the use of mucin as normally applied in the murine peritonitis model. The mice were rendered neutropenic by cyclophosphamide injections. Treatment with 40 mg/kg meropenem was included as a positive control group and treatment with vehicle was included as a negative control group. The colony counts in peritoneal fluid and blood were determined at 2 and 5 hours after treatment.
• 30 outbred, NMRI female mice, 28-32 grams (Harlan Scandinavia) • Escherichia coli AID#172 from Statens Serum Institute, Copenhagen, Denmark. Clinical isolate from a human wound from 2003. Multiresistant (Ampicillin, Ceftazidime, Aztreonam, Gentamicin, Ciprofloxacin) • NZ17074 in Ringer Acetate pH 6, 1.2 ml 0.75 mg/ml. […] Lot no. 09466C Date of expiration: 08-2013 • APODAN®(A-Pharma, 1 g cyclophosphamide) Batch nr. 928491 • Date of expiration: May 2012 • Water, sterile • 0.9% saline, sterile • 5% Horse Blood Agar plates • Lactose bromthymol blue agar plates
The mice were rendered neutropenic by injecting 0.5 ml cyclophosphamide solution intraperitoneally 4 days (200 mg/kg) and 1 day (100 mg/kg) prior to inoculation.
Fresh overnight E. coli AID#172 colonies from a 5% Horse Blood Agar plate were suspended and diluted in sterile saline to approximately 2×10^6CFU/ml.
One hour before start of treatment (time −1 hour) mice were inoculated intraperitoneally with 0.5 ml of the E. coli suspension in the lateral lower quadrant of the abdomen.
The mice were clinically scored for signs of infection at the time of each sampling. • Score 0: Healthy. • Score 1: Minor clinical signs of infection and inflammation e.g. observations of minor signs of distress or changed activity. • Score 2: Clear signs of infection like, social withdrawal, lack of curiosity, changed body position, piloerection, or changes in pattern of movement. • Score 3: Severe signs of infection like stiff movements, lack of curiosity, forced ventilation, changed body position, piloerection, pain, or changes in pattern o movement. • Score 4: Severe pain and the mouse was sacrificed immediately to minimize the suffering of the animal. • Score 5: The mouse was dead.
The mice were treated i.v. in the lateral tail vein over approximately 30 seconds with a single dose of NZ17074, meropenem or vehicle at time 0 hour (see Table 1). The dosing was based on a mean weight of 30 g. Mice that weighed 28-32 g received 0.30 ml solution. Mice that weighed 27-28 g received 0.25 ml solution and mice that weighed 32.1-36 g received 0.35 ml solution. Mouse 17 accidently received 0.35 ml although it weighed 29.5 g.
Colony counts were determined from blood and peritoneal fluid at 0, 2 and 5 hours after treatment according to Table 1.
The mice were anesthetized with O2+CO2 and blood was collected by axilliary cut down. The mice were sacrificed by cervical dislocation and a total of 2 ml sterile saline was injected i.p. and the abdomen gently massaged before it was opened and fluid sampled with a pipette. Each sample was 10 fold diluted in saline and 20-microliter spots were applied on blood agar plates. All agar plates were incubated 18-22 hours at 35° C. in ambient air.
The CFU numbers are log10 transformed before performing calculations to obtain a normal distribution.

[1] = Meropenem 40 mg/kg single dose, sampling T = 2, individual mice
[2] = Meropenem 40 mg/kg single dose, sampling T = 5, p < 0.01 vs vehicle
[3] = Meropenem 40 mg/kg single dose, sampling T = 5, individual mice
[4] = Meropenem 40 mg/kg single dose, individual mice

## C[C@@H](O)[C@H]1C(=O)N2C(C(=O)O)=C(S[C@@H]3CN[C@H](C(=O)N(C)C)C3)[C@H](C)[C@H]12 [meropenem]
40 mg/kg i.v., 2 hours after treatment
  CFU levels compared to vehicle, blood: lack of significance
40 mg/kg i.v.
  CFU levels compared to vehicle: significantly (p<0.01) reduced CFU levels
40 mg/kg i.v., listed as Meropenem
  CFU levels compared to vehicle: significant reduction
2 hours
  difference in CFU levels compared to vehicle treatment, blood: blood −0.82 log log cfu/ml
  difference in CFU levels compared to vehicle treatment, peritoneum: 2 hours: peritoneum −1.51 log cfu/ml
5 hours
  difference in CFU levels compared to vehicle treatment, blood: blood −1.64 log log cfu/ml
  difference in CFU levels compared to vehicle treatment, peritoneum: 5 hours: peritoneum −1.51 log cfu/ml
Meropenem 40 mg/kg single dose, group sampled T = 2, individual mice
  Score T = 0 hour: 0
Meropenem 40 mg/kg single dose, group sampled T = 5, individual mice
  Score T = 0 hour: 0
Meropenem 40 mg/kg single dose, sampling T = 2, not significant vs vehicle
  log10 CFU Mean Blood: 3.76 log10 CFU
[1]
  log10 CFU Blood: 3.60 log10 CFU and 3.57 log10 CFU and 4.11 log10 CFU
  log10 CFU PF: 4.12 log10 CFU and 3.40 log10 CFU and 4.24 log10 CFU
[2]
  log10 CFU Mean Blood: 3.10** log10 CFU
  log10 CFU mean PF: 4.21** log10 CFU
[3]
  log10 CFU Blood: 3.20 log10 CFU and 2.85 log10 CFU and 3.26 log10 CFU
  log10 CFU PF: 4.38 log10 CFU and 4.00 log10 CFU and 4.26 log10 CFU
[4]
  Score T = 2 hours: 1
  Score T = 5 hours: 0
Meropenem 40 mg/kg single dose, sampling T = 2, p < 0.01 vs vehicle
  log10 CFU mean PF: 3.92** log10 CFU
